This note sets out measurements from PubChem BioAssay (NCI).

“And” between values parts separate entries of the source, which are not always exact repeats. Equal entries are not always repeated.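 Five compound concentrations were applied to cells in 96-well plates for 48 hours; endpoints were derived by simple linear interpolation of the resulting dose-response curve. GI50 = concentration required for 50% inhibition of growth. TGI marks complete inhibition of growth.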 *1 amine or outer side, *2 acyl side, *3 side chain or, on linkers, in order; H or OH if unused. Where a SMILES comes first, the peptide text is derived from it. Bridges are numbered along the chain shown (N, C = ends). Roman numbers before positions name the chains, in order. [ ]: non-standard residue; d: D form. Actinocin(9to1) = Cc1c2oc3c(C)ccc(C(=O)[*:1])c3nc-2c(C(=O)[*:2])c(N)c1=O; NMeT = CN[CH](C(=O)O)[CH](C)O; Sar = CNCC(=O)O

Test systems include CAKI-1 renal; A549 NSCLC; CCRF-CEM leukemia; OVCAR-5 ovarian; COLO 205 colon; SW-620 colon; A498 renal; NCI/ADR-RES ovarian; SK-MEL-2 melanoma; SNB-75 CNS.
Experiment in all cases: NCI anticancer screen, dose series, 48 h

Take `Cc1c2oc3c(C)ccc(C(=O)NC4C(=O)NC(C(C)C)C(=O)N5CCCC5C(=O)N(C)CC(=O)N(C)C(C(C)O)C(=O)OC4C)c3nc-2c(C(=O)NC2C(=O)NC(C(C)C)C(=O)N3CCCC3C(=O)N(C)CC(=O)N(C)C(C(C)O)C(=O)OC2C)c(N)c1=O` (stereo not given) (I: TVP[Sar][NMeT] / II: TVP[Sar][NMeT]; ester I:1-I:C, II:1-II:C; linker I:N-II:N via Actinocin(9to1); configuration not given here): the GI50 in the assay on CAKI-1 renal was 3.64 µM and > 1 µM; in the assay on A549 NSCLC, 2.86 µM and > 1 µM; with OVCAR-5 ovarian it was 4.29 µM and > 1 µM; in the assay on COLO 205 colon, 2.22 µM and 0.801 µM; with A498 renal it was 0.327 µM and > 1 µM; in the assay on NCI/ADR-RES ovarian it was 25.9 µM and > 1 µM. Also, the TGI in the assay with CAKI-1 renal was 13.1 µM and > 1 µM; in the assay on A549 NSCLC it was more than 100 µM; with CCRF-CEM leukemia, 26.7 µM and > 1 µM; with OVCAR-5 ovarian, more than 43.4 µM; with COLO 205 colon it was more than 36.8 µM; in the assay on SW-620 colon, 43.4 µM and > 1 µM. In addition, the TGI with A498 renal was 2.33 µM and > 1 µM; in the assay on NCI/ADR-RES ovarian, more than 100 µM; with SK-MEL-2 melanoma it was 3.97 µM and > 1 µM; in the assay on SNB-75 CNS, 3.43 µM and 0.839 µM.
`C=C1C(=O)O[C@H]2[C@H]1CC/C(COC(=O)C(=O)c1cn(C)c3ccc(Cl)cc13)=C\CC[C@@]1(C)O[C@@H]21`: the GI50 is 1.71 µM in the assay with CAKI-1 renal; 2.2 µM in the assay on A549 NSCLC; 0.338 µM in the assay on CCRF-CEM leukemia; 1.91 µM with OVCAR-5 ovarian; 1.96 µM in the assay on COLO 205 colon; 0.857 µM in the assay with SW-620 colon. Besides, the GI50 was 2.17 µM with A498 renal, 1.45 µM in the assay on NCI/ADR-RES ovarian, 1.39 µM with SK-MEL-2 melanoma and 1.61 µM with SNB-75 CNS. The TGI turned out to be 4.54 µM in the assay with CAKI-1 renal; 4.82 µM with A549 NSCLC; 10.9 µM with CCRF-CEM leukemia; 5.82 µM in the assay with OVCAR-5 ovarian; 4.2 µM in the assay on COLO 205 colon; 10.9 µM in the assay on SW-620 colon. Also, the TGI with A498 renal came to 3.86 µM; in the assay on NCI/ADR-RES ovarian, 4.7 µM; in the assay with SK-MEL-2 melanoma, 3.61 µM; in the assay with SNB-75 CNS, 3.8 µM.
Turning to `COc1cc2ncn(-c3cc(O[C@@H](C)c4ccccc4Cl)c(C(N)=O)s3)c2cc1OC`, the GI50 in the assay on CAKI-1 renal was 6.8 µM; in the assay with A549 NSCLC, 1.45 µM; with CCRF-CEM leukemia, 0.107 µM; with OVCAR-5 ovarian it was 1.29 µM; in the assay on COLO 205 colon, 0.444 µM; with SW-620 colon, 0.612 µM. Also, the GI50 in the assay on A498 renal is 1.08 µM; in the assay on NCI/ADR-RES ovarian, 0.429 µM; with SK-MEL-2 melanoma it was 1.58 µM; in the assay with SNB-75 CNS it was 3.86 µM. For the same compound, the TGI in the assay on CAKI-1 renal is more than 25 µM; with A549 NSCLC, more than 25 µM; in the assay on CCRF-CEM leukemia it was more than 10.5 µM; with OVCAR-5 ovarian, more than 25 µM; in the assay with COLO 205 colon it was more than 25 µM; with SW-620 colon, more than 25 µM. Besides, the TGI with A498 renal was 13.8 µM; in the assay with NCI/ADR-RES ovarian it was more than 25 µM; in the assay with SK-MEL-2 melanoma, more than 25 µM; with SNB-75 CNS it was more than 25 µM.
Take `O=S(=O)(NCCCNc1nccc(-c2c(-c3ccc(F)c(O)c3)nc3sccn23)n1)c1ccc(F)cc1`: the GI50 in the assay with CAKI-1 renal was 3.57 µM; in the assay on A549 NSCLC it was 3.02 µM; in the assay with CCRF-CEM leukemia, 1.58 µM; in the assay with OVCAR-5 ovarian it was 3.41 µM; with COLO 205 colon, 1.48 µM; in the assay with SW-620 colon, 3.9 µM. In addition, the GI50 is 2.86 µM in the assay on A498 renal, 3.44 µM in the assay on NCI/ADR-RES ovarian, 0.717 µM with SK-MEL-2 melanoma and 2.02 µM with SNB-75 CNS. Besides, the TGI in the assay with CAKI-1 renal is more than 100 µM; with A549 NSCLC, 47.1 µM; in the assay on CCRF-CEM leukemia, 6.07 µM; with OVCAR-5 ovarian it was more than 100 µM; in the assay on COLO 205 colon, 9.67 µM; with SW-620 colon, more than 100 µM. Also, the TGI in the assay on A498 renal stood at 6.81 µM; in the assay on NCI/ADR-RES ovarian it was 28 µM; in the assay on SK-MEL-2 melanoma it was 3.01 µM; in the assay with SNB-75 CNS, 8.38 µM.
For the compound `C[C@@H](O)[C@H](NC(=O)N[C@@H](CC(N)=O)c1nc([C@@H](N)CO)no1)C(=O)O`, the GI50 in the assay on CAKI-1 renal, with A549 NSCLC, in the assay on CCRF-CEM leukemia, with OVCAR-5 ovarian, in the assay on COLO 205 colon and with SW-620 colon was more than 100 µM throughout. For the same compound, the GI50 in the assay with A498 renal, in the assay with NCI/ADR-RES ovarian, in the assay on SK-MEL-2 melanoma and in the assay on SNB-75 CNS was more than 100 µM in each case. Also, the TGI in the assay on CAKI-1 renal, in the assay with A549 NSCLC, in the assay on CCRF-CEM leukemia, with OVCAR-5 ovarian, in the assay on COLO 205 colon and with SW-620 colon was more than 100 µM each time. The TGI in the assay with A498 renal, with NCI/ADR-RES ovarian, with SK-MEL-2 melanoma and in the assay with SNB-75 CNS was more than 100 µM throughout.
For the compound `COc1ccc(/C(COc2ccc3c(=O)c(-c4ccccc4)coc3c2)=N\O)cc1`, the GI50 in the assay with CAKI-1 renal was 1.46 µM; in the assay with A549 NSCLC, 14.8 µM; in the assay with CCRF-CEM leukemia, 3.9 µM; in the assay on COLO 205 colon, 9.66 µM; in the assay on SW-620 colon, 2.37 µM; with A498 renal, 3.22 µM. Besides, the GI50 is 0.652 µM in the assay with NCI/ADR-RES ovarian, 3.5 µM in the assay with SK-MEL-2 melanoma and 14.5 µM in the assay on SNB-75 CNS. The TGI with CAKI-1 renal was 7.47 µM; with A549 NSCLC, more than 83.6 µM; with CCRF-CEM leukemia, more than 100 µM; in the assay with OVCAR-5 ovarian, more than 96.5 µM; in the assay with COLO 205 colon it was more than 36.3 µM; with SW-620 colon, 16.9 µM. For the same compound, the TGI in the assay on A498 renal is 18.5 µM; in the assay on NCI/ADR-RES ovarian, 35.5 µM; with SK-MEL-2 melanoma, 23.7 µM; with SNB-75 CNS it was more than 70.9 µM.
`C[C@]12CC[C@@H]3c4cc(-c5ccc(F)cc5)c(O)cc4CC[C@H]3[C@@H]1CC[C@@H]2O`: the GI50 is 6.47 µM with CAKI-1 renal; 6.17 µM in the assay with A549 NSCLC; 6.93 µM with CCRF-CEM leukemia; 19.1 µM in the assay on OVCAR-5 ovarian; 4.83 µM in the assay on COLO 205 colon; 10.1 µM in the assay on SW-620 colon. Moreover, the GI50 is 3.39 µM in the assay on A498 renal, 6.95 µM in the assay on NCI/ADR-RES ovarian, 5.81 µM in the assay on SK-MEL-2 melanoma and 2.06 µM with SNB-75 CNS. For the same compound, the TGI in the assay on CAKI-1 renal is 21.5 µM; with A549 NSCLC, 22.9 µM; in the assay with CCRF-CEM leukemia, 29.3 µM; in the assay on OVCAR-5 ovarian, 39.2 µM; with COLO 205 colon it was 23.9 µM; in the assay with SW-620 colon, 21.8 µM. Also, the TGI was found to be 12.2 µM with A498 renal, 65.9 µM in the assay on NCI/ADR-RES ovarian, 19.8 µM in the assay on SK-MEL-2 melanoma and 8.38 µM in the assay with SNB-75 CNS.
